Measured values reported in PubChem BioAssay AID624405 (Broad Institute, 2012).
Records with an inconclusive call do not appear.

System: C2C12 myotubes + simvastatin, ATP luminescence, 48 h
Experiment: rescue of simvastatin-induced ATP loss – cell-based, C2C12 myotubes, ATP luminescence, cherry pick, dose response (AID 624405);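 also: myotubes are challenged with simvastatin at 10 µM to lower ATP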

In the case of `Cc1ccc(S(=O)(=O)N(C)C[C@H]2Oc3c(NC(=O)Nc4ccccc4)cccc3C(=O)N([C@@H](C)CO)C[C@H]2C)cc1`, the AC40 is reported as 18 µM.
`Cc1cccc(C(=O)Nc2cc(OCc3cccc(F)c3)c(Cl)cc2Cl)c1` was tested, and the AC40 was 15.9 µM.
`COCc1nc2ccccc2n1CCCOc1ccccc1` showed an AC40 of 13.4 µM.
With `CC(=O)C(=Nc1ccccc1Cl)NNc1ccc(Cl)cc1` the AC40 was 6.58 µM.
`O=C(C1CCC1)N1CCCc2cc(S(=O)(=O)N3CCN(c4ccccc4)CC3)ccc21` was tested, and the AC40 was 16.6 µM.
`Cc1ccc(N2CC(C(=O)Nc3ccc(N(C)C)cc3)CC2=O)cc1C` (stereo not given) gave an AC40 of 12 µM.
`CC(=O)c1ccc(-c2cc([C@H]3[C@H]4C=CC[C@@H](C)[C@@H]4C(=O)N3Cc3ccccc3)ccc2F)cc1` gave an AC40 of 8.76 µM.
Work on `C=CCOc1ccc(Br)cc1/C=N/O` yielded an AC40 of 17.9 µM.
In the case of `CCSc1nnc(NC(=O)c2c(-c3ccccc3Cl)noc2C)s1`, the AC40 is reported as 13.9 µM.
`Cc1ccc(S(=O)(=O)Nc2ccc3c(c2)CC(=O)N([C@@H](C)CO)C[C@H](C)[C@@H](CN(C)Cc2ccc(-c4ccccc4)cc2)O3)cc1` gave an AC40 of 18.9 µM.
With `CCOC(=O)N1CCN(C(=O)CN(Cc2ccccc2)S(=O)(=O)c2ccc(OC)c(Cl)c2)CC1` the AC40 was 15.7 µM.
For `Cc1ccc(NS(=O)(=O)c2ccc(-n3cccn3)cc2)cc1C`, the AC40 was 16.1 µM.
`Cc1ccc(S(=O)(=O)N2CCN(S(=O)(=O)c3ccc(C)cc3)C2c2ccccc2)cc1` gave an AC40 of 18.6 µM.
Molecule `CCOCCCN1CN(S(=O)(=O)c2ccc(Cl)cc2)c2nc3ccccc3nc21` has an AC40 of 1.87 µM.
Work on `COc1ccc(C)cc1C(=O)C1CC(C(=O)O)C(C)(C)C1C` (stereo not given) yielded an AC40 of 10.6 µM.
In the case of `CCSC1(SCC)N=C(N)C2(C#N)C(c3ccc(F)cc3)C12C#N` (stereo not given), the AC40 is reported as 6.36 µM.
For `COc1ccc(S(=O)(=O)Nc2ccc3c(c2)C(=O)N([C@@H](C)CO)C[C@H](C)[C@H](CN(C)S(=O)(=O)c2ccc(F)cc2)OCCCC[C@@H](C)O3)cc1`, the AC40 was 17.7 µM.
`Cc1cccc(-n2c(O)c(C=NC3CCS(=O)(=O)C3)c3ccccc3c2=O)c1` (stereo not given) showed an AC40 of 17.6 µM.
In the case of `COc1ccc(S(=O)(=O)N(C)C[C@H]2Oc3c(NC(=O)Nc4ccc(F)cc4)cccc3C(=O)N([C@@H](C)CO)C[C@H]2C)cc1`, the AC40 is reported as 14.5 µM.
`O=C(NCc1ccco1)c1cc2sccc2n1Cc1ccc(F)cc1` was tested, and the AC40 was 16.4 µM.
`Cc1ccc(S(=O)(=O)Nc2ccc3c(c2)CC(=O)N([C@H](C)CO)C[C@H](C)[C@@H](CN(C)Cc2ccc(Cl)c(Cl)c2)O3)cc1` was tested, and the AC40 was 8.12 µM.
Molecule `C[C@@H]1CN([C@H](C)CO)C(=O)Cc2cc(NS(=O)(=O)c3ccc(Cl)cc3)ccc2O[C@H]1CN(C)CC1CCCCC1` has an AC40 of 9.96 µM.
`Cc1ccc(C(C(=O)NC2CCCC2)N(C(=O)Cc2cccs2)c2ccc3c(c2)OCCO3)cc1` (stereo not given) gave an AC40 of 19 µM.
With `CCOc1ccccc1NC(=O)c1ccccc1N(C)S(C)(=O)=O` the AC40 was 5.38 µM.
In the case of `C[C@@H]1CN([C@@H](C)CO)C(=O)c2cccc(NC(=O)Nc3ccccc3)c2O[C@@H]1CN(C)S(=O)(=O)c1ccc(F)cc1`, the AC40 is reported as 15.1 µM.
With `CCOc1c(S(=O)(=O)N2CCCC2)ccc(Cl)c1Cl` the AC40 was 5.43 µM.
Molecule `CCOC(=O)n1c(=O)n(Cc2c(Cl)cccc2Cl)c2ccccc21` has an AC40 of 7.14 µM.
With `CCCCNc1oc(-c2cccs2)nc1S(=O)(=O)c1ccccc1` the AC40 was 7.73 µM.
For `Cc1ccc(S(=O)(=O)N2CCN(C(=O)c3cccs3)CC2)cc1C`, the AC40 was 9.44 µM.
In the case of `C[C@@H]1CN([C@H](C)CO)C(=O)c2cc(NS(=O)(=O)c3ccc(Cl)cc3)ccc2O[C@@H]1CN(C)Cc1ccc(C(=O)Nc2ccccc2N)cc1`, the AC40 is reported as 11.3 µM.
`NC1=NC(=Nc2ccccc2)c2ccccc21` was tested, and the AC40 was 16.3 µM.
`O=c1[nH]cnc2scc(-c3ccsc3)c12` gave an AC40 of 13.2 µM.
For `C[C@@H]1CN([C@H](C)CO)C(=O)Cc2cc(NC(=O)CCCCCC(=O)Nc3ccccc3N)ccc2O[C@@H]1CN(C)CC1CCCCC1`, the AC40 was 15.4 µM.
`C[C@H](CO)N1C[C@H](C)[C@@H](CN(C)Cc2ccc(C(F)(F)F)cc2)Oc2ccc(NS(=O)(=O)c3ccc(F)cc3)cc2CC1=O` was tested, and the AC40 was 18.2 µM.
In the case of `COc1ccc(Nc2nc3ccc(C)cn3c(=O)c2/C=N/O)cc1`, the AC40 is reported as 15.2 µM.
With `C[C@H]1CN([C@@H](C)CO)C(=O)Cc2cc(NC(=O)CCCCCC(=O)Nc3ccccc3N)ccc2O[C@H]1CN(C)CC1CCCCC1` the AC40 was 2.67 µM.
With `CC1(Cc2ccc(Cl)cc2)C(=O)Nc2ccc(-c3cccnc3)cc21` (stereo not given) the AC40 was 15.8 µM.
`CCS(=O)(=O)c1ncc(Cl)c(C(=O)Nc2ccc(C)cc2)n1` was tested, and the AC40 was 2.8 µM.
In the case of `COc1ccc(-c2csc(C(C)(O)c3ccccc3)n2)cc1OC` (stereo not given), the AC40 is reported as 13.4 µM.
For `COc1ccc(N2CCN(C(=O)c3ccc4c(c3)CCN4S(=O)(=O)c3ccccc3)CC2)cc1`, the AC40 was 16.2 µM.
In the case of `Cc1ccc(NS(=O)(=O)c2ccc(-n3cccn3)cc2)cc1F`, the AC40 is reported as 5.32 µM.
In the case of `C[C@H]1C[C@@H](C)C(=O)[C@@H]([C@H](O)CC2CC(=O)NC(=O)C2)C1`, the AC40 is reported as under 0.16 µM.
For `C[C@@H]1CN([C@@H](C)CO)C(=O)Cc2cc(NC(=O)CCCCCC(=O)Nc3ccccc3N)ccc2O[C@H]1CN(C)Cc1ccc(-c2ccccc2)cc1`, the AC40 was 10.7 µM.
Work on `Cc1ccc(C2(c3ccc(C)cc3)NC(=O)N(Cc3c(C)noc3C)C2=O)cc1` yielded an AC40 of 5.45 µM.
Molecule `O=C(c1cccc(Cl)c1)c1nn(-c2ccccc2)c(=O)cc1C(F)(F)F` has an AC40 of 4.99 µM.
Molecule `O=C(CCCSc1nc(-c2ccco2)cc(C(F)(F)F)n1)NCc1cccs1` has an AC40 of 15.1 µM.
`C[C@H](CO)N1C[C@H](C)[C@H](CN(C)Cc2ccc3c(c2)OCO3)Oc2ccc(NC(=O)CCCCCC(=O)Nc3ccccc3N)cc2CC1=O` gave an AC40 of 14.9 µM.
In the case of `Fc1ccc(-c2csc(Nc3ccccn3)n2)cc1`, the AC40 is reported as 7.31 µM.
In the case of `O=C1c2ccccc2-c2onc3ccc(Oc4ccccc4)c1c23`, the AC40 is reported as 5.91 µM.
In the case of `N#C[C@@H]1[C@@H](c2ccc(-c3cccc(F)c3)cc2)[C@H](CO)N1C(=O)NC1CCCC1`, the AC40 is reported as 0.38 µM.
`C[C@H](CO)N1C[C@H](C)[C@@H](CN(C)Cc2ccc(Cl)c(Cl)c2)Oc2ccc(NS(C)(=O)=O)cc2CC1=O` gave an AC40 of 9.83 µM.
`C[C@@H]1CN([C@H](C)CO)C(=O)c2cccc(NC(=O)c3nc4ccccc4s3)c2O[C@@H]1CN(C)Cc1ccc(C(=O)Nc2ccccc2N)cc1` gave an AC40 of 0.462 µM.
With `C[C@H](CO)N1C[C@H](C)[C@@H](CN(C)Cc2ccc(C(F)(F)F)cc2)Oc2ccc(NC(=O)CCCCCC(=O)Nc3ccccc3N)cc2CC1=O` the AC40 was 8.51 µM.
`C[C@H]1CN([C@@H](C)CO)C(=O)c2cc(NC(=O)Cc3cn(C)c4ccccc34)ccc2O[C@H]1CN(C)Cc1ccc(C(=O)Nc2ccccc2N)cc1` gave an AC40 of 3.17 µM.
`CC1(Cc2ccccc2OC(F)(F)F)C(=O)Nc2ccc(S(=O)(=O)NC3CCCCC3)cc21` (stereo not given) showed an AC40 of 6.62 µM.
`C[C@H](CO)N1C[C@H](C)[C@@H](CN(C)Cc2ccc(Cl)c(Cl)c2)Oc2ccc(NC(=O)C3CC3)cc2CC1=O` gave an AC40 of 1.23 µM.
For `CC(C)(C)NC(=O)CN(C(=O)Cn1nnc(-c2ccccc2F)n1)c1cccc2c1CCCC2`, the AC40 was 19.4 µM.
For `CCC(=O)/C=C1/Sc2ccccc2N1CC`, the AC40 was 7.21 µM.
Work on `C[C@@H]1CN([C@H](C)CO)C(=O)Cc2cc(NS(C)(=O)=O)ccc2O[C@@H]1CN(C)Cc1ccc(-c2ccccc2)cc1` yielded an AC40 of 18.4 µM.
For `C[C@@H]1CN([C@H](C)CO)C(=O)Cc2cc(NS(=O)(=O)c3cn(C)cn3)ccc2O[C@@H]1CN(C)Cc1ccc(Cl)c(Cl)c1`, the AC40 was 2.69 µM.
`Cc1ccc(O)c(CNc2ccccn2)c1` gave an AC40 of 0.443 µM.
Molecule `CCOc1ccccc1NC(=O)C1CCCN(S(=O)(=O)c2ccc(OC)c(C)c2)C1` (stereo not given) has an AC40 of 8.06 µM.
`Cc1ccc(O)c(NC(=O)c2cc(-c3cccs3)on2)c1` showed an AC40 of 14.3 µM.
`Cc1ccc(S(=O)(=O)Nc2ccc3c(c2)C(=O)N([C@H](C)CO)C[C@H](C)[C@H](CN(C)Cc2ccc(C(=O)Nc4ccccc4N)cc2)O3)cc1` showed an AC40 of 17 µM.
For `CCN(CC)c1ncnc2c1cnn2Cc1ccc(C)cc1`, the AC40 was 12 µM.
`CC(C)C(=O)N(c1ccc2oc(=O)sc2c1)S(=O)(=O)c1ccccc1` gave an AC40 of 3.85 µM.
For `COc1ccc(S(=O)(=O)Nc2ccc3c(c2)CC(=O)N([C@H](C)CO)C[C@H](C)[C@@H](CN(C)Cc2ccc(Cl)c(Cl)c2)O3)cc1`, the AC40 was 15.9 µM.
`COc1cc(NC(=O)CN(C)S(=O)(=O)c2ccc3c(c2)CC(C)N3C(C)=O)cc(OC)c1OC` (stereo not given) gave an AC40 of 15.9 µM.
`Cc1nn2c3ccccc3n(Cc3ccccc3)c2nc1=O` showed an AC40 of 19 µM.
Work on `Cc1cc2c3c(c1)C1(SCC(=O)N1c1ccc(F)cc1)C(=O)N3C(C)(C)CC2C` (stereo not given) yielded an AC40 of 4.82 µM.
`CCOc1[nH]n(-c2ccccc2)c(=O)c1C=Nc1ccc(Cl)cc1` was tested, and the AC40 was 11.9 µM.
Work on `Nc1nonc1-c1nc2ccccc2n1Cc1ccc(F)cc1Cl` yielded an AC40 of 0.892 µM.
With `Cc1nn(Cc2ccccc2Cl)c2sc(C(=O)NCc3ccc4c(c3)OCO4)cc12` the AC40 was 12.5 µM.
With `CCC(C(=O)NC1CCCC1)N(C(=O)Cn1nnc(-c2ccc(OC)c(OC)c2)n1)c1cccc(O)c1` (stereo not given) the AC40 was 8.39 µM.
`C[C@H]1CN([C@@H](C)CO)C(=O)Cc2cc(NC(=O)Nc3cccc4ccccc34)ccc2O[C@H]1CN(C)Cc1ccc(C(=O)Nc2ccccc2N)cc1` was tested, and the AC40 was 2.05 µM.
Molecule `C=CCn1c(SCC(=O)NC2CCCC2)nc2scc(-c3ccco3)c2c1=O` has an AC40 of 9.19 µM.
For `C[C@@H]1CN([C@@H](C)CO)C(=O)c2cc(NC(=O)Nc3cccc4ccccc34)ccc2O[C@@H]1CN(C)Cc1ccc(C(=O)Nc2ccccc2N)cc1`, the AC40 was 2.85 µM.
Molecule `CC(C)OC(=O)N(C)C[C@@H]1OCc2ccccc2-c2c(n(C)c3ccccc23)C(=O)N([C@H](C)CO)C[C@H]1C` has an AC40 of 18.1 µM.
With `O=C(C#Cc1ccccc1)Nc1cccc(F)c1` the AC40 was 3.42 µM.
`COc1ccc(C#Cc2cnc3c(c2)C(=O)N([C@H](C)CO)C[C@H](C)[C@H](CN(C)Cc2ccccc2)O3)cc1OC` showed an AC40 of 2.66 µM.
Molecule `O=C(C[C@H]1CC[C@@H]2[C@H](COC[C@@H](O)CN2Cc2ccc(Oc3ccccc3)cc2)O1)N1CCCCC1` has an AC40 of 3.19 µM.
Molecule `C[C@@H]1CN([C@@H](C)CO)C(=O)Cc2cc(N(C)C)ccc2O[C@@H]1CN(C)Cc1ccc(Cl)c(Cl)c1` has an AC40 of 9.93 µM.
With `Cc1ccc(S(=O)(=O)Nc2ccc3c(c2)CC(=O)N([C@@H](C)CO)C[C@@H](C)[C@H](CN(C)Cc2ccc(-c4ccccc4)cc2)O3)cc1` the AC40 was 1.17 µM.
Molecule `C[C@@H]1CN([C@H](C)CO)C(=O)c2cc(NC(=O)Cc3cn(C)c4ccccc34)ccc2O[C@@H]1CN(C)Cc1ccc(C(=O)Nc2ccccc2N)cc1` has an AC40 of 9.69 µM.
With `Cc1ccc(C2OC(=O)c3ccccc32)cc1` (stereo not given) the AC40 was 2.21 µM.
For `C[C@H]1CN([C@@H](C)CO)C(=O)c2cc(N(C)C)ccc2O[C@@H]1CN(C)Cc1ccc(C(=O)Nc2ccccc2N)cc1`, the AC40 was 5.34 µM.
`O=S(=O)(Nc1nc2c(s1)CCCC2)c1ccc2ccccc2c1` gave an AC40 of 5.94 µM.
For `C[C@H](CO)N1C[C@H](C)[C@H](CN(C)C(=O)Nc2ccc(F)cc2)Oc2ncc(C#Cc3ccc(C(F)(F)F)cc3)cc2C1=O`, the AC40 was 13.5 µM.
`COc1cccc(-c2ccc([C@@H]3[C@@H](C#N)N(C(=O)Cc4ccccc4)[C@H]3CO)cc2)c1` was tested, and the AC40 was 11.5 µM.
Work on `COc1cc2c(cc1OC)C(=O)CCS2` yielded an AC40 of 1.88 µM.
